US9877945B2 (priority 2013, dated 2018)
Like-named read-outs stand apart in the source and are kept apart here.

Test system: Clostridium perfringens strain 56
Details: for Number of birds with macroscopic necrotic enteritis lesions: lesion score 2 or more = positive; for Birds with macroscopic necrotic enteritis lesions, Total (%) (positive chicken in total) / Number of birds with macroscopic necrotic enteritis lesions, total: total of days 21-23
[1] = day 21, product on silica carrier in feed 5 / 2.5 / 2 kg/ton in weeks 1 / 2 / 3 (low conc for monobutyrate)
[2] = day 22, product on silica carrier in feed 5 / 2.5 / 2 kg/ton in weeks 1 / 2 / 3 (low conc for monobutyrate)
[3] = day 23, product on silica carrier in feed 5 / 2.5 / 2 kg/ton in weeks 1 / 2 / 3 (low conc for monobutyrate)
[4] = product on silica carrier in feed 5 / 2.5 / 2 kg/ton in weeks 1 / 2 / 3 (low conc for monobutyrate)
[5] = product on silica carrier in feed at high conc 7.5 / 6 / 5.5 kg/ton in weeks 1 / 2 / 3

For `CCCC(=O)OCC(O)CO` (centres unmarked) [glyceryl monobutyrate], the “Number of birds with macroscopic necrotic enteritis lesions” value [1] was 5/9, the “Number of birds with macroscopic necrotic enteritis lesions” value (day 21, product on silica carrier in feed at high conc 7.5 / 6 / 5.5 kg/ton in weeks 1 / 2 / 3) was 4/9 and the “Number of birds with macroscopic necrotic enteritis lesions” value [2] was 3/9. For the same compound, the “Number of birds with macroscopic necrotic enteritis lesions” value (day 22, product on silica carrier in feed at high conc 7.5 / 6 / 5.5 kg/ton in weeks 1 / 2 / 3) was 5/9, the “Number of birds with macroscopic necrotic enteritis lesions” value [3] was 2/10 and the “Number of birds with macroscopic necrotic enteritis lesions” value (day 23, product on silica carrier in feed at high conc 7.5 / 6 / 5.5 kg/ton in weeks 1 / 2 / 3) was 3/8. For the same compound, the “chickens died during the trial” value (pen 3: higher concentration in feed (7.5 / 6 / 5.5 kg/ton)) was 2, the “Birds with macroscopic necrotic enteritis lesions, Total (%) (positive chicken in total)” value (“Birds … (%) (positive chicken in total)” for short) [4] was 36% and the “Number of birds with macroscopic necrotic enteritis lesions, total” value (from here on “Number of birds … total”) [4] was 10/28. For the same compound, the “Birds … (%) (positive chicken in total)” value [5] was 46% and the “Number of birds … total” value [5] was 12/26.

`CCCC(=O)OCC(COC(=O)CCC)OC(=O)CCC` [glyceryl tributyrate] was tested, and the “Result in preventing Clostridium perfringens-induced necrotic enteritis compared with glyceryl monobutyrate at either concentration (FIG. 1)” value (added to the feed, P value <0.05 taken as significant) was “significantly better result”, the “Number of birds with macroscopic necrotic enteritis lesions” value [1] was 3/9 and the “Number of birds with macroscopic necrotic enteritis lesions” value [2] was 2/9. The “Number of birds with macroscopic necrotic enteritis lesions” value [3] was 2/11, the “Birds … (%) (positive chicken in total)” value [4] was 24% and the “Number of birds … total” value [4] was 7/29.
